From patent US12310975B2, “Modulators of BCL6 proteolysis and associated methods of use” (Arvinas Operations, Inc., priority 2019, dated 2025)
Where two headings read alike, the source gives them in different places.

How the values were obtained:
BCL6 [1] = target: T1, BCL6 (Homo sapiens (Human), UniProt P41182); assay: BCL6 TR-FRET assay (BCL6-Avitag-Biotin / BCoR-Cy5 peptide); type: binding
Method: Protein Synthesis. BCL6 protein was expressed by transforming Invitrogen One Shot cells with GS63525 pET24a-His-SUMO-TEV-BCLm-Avitag plasmid following manufacturer's instructions. In addition, biotin at a final concentration of 50 μM, and IPTG at a final concentration of 1 mM was added to the culture and incubated at room temperature shaking overnight.
Assay buffer A: 50 mM HEPES pH 7.5, 125 mM NaCl, 0.01% TritonX.
Assay buffer B (made fresh): buffer A+1 mM Glutathione (or 0.5 mM DTT).
Assay buffer C (made fresh): buffer B+0.03% BSA.
Black Proxy plates, 96 well.
15 μl final reaction volumes (BCoR-Cy5 100 nM, SA-Eu 2 nM, BCL6-avitag 2 nM).
[…] BCL6-Avitag-Biotin stock: made fresh by adding 2 μl of BCL6-Avitag-Biotin to 31.5 ml Buffer C.
1 mM BCoR-Cy5 peptide (LifeTein) stock in Dimethylformamide (DMF).
300 nM BCoR-Cy5 working stock: made fresh by adding 4.5 μl of the 1 mM BCoR-Cy5 peptide stock to 15 ml Buffer B.
10 μM Eu-Streptavidin (Lance Eu-W1024 Streptavidin, PerkinElmer) stock solution.
6 nM Eu-Streptavidin working stock: made fresh by adding 9 μl Eu-Streptavidin stock solution to 15 ml Buffer A.
Compounds were diluted to 10 mM. Twenty microliters of DMSO was aliquoted to each well of the microtiter plates. From the 10 mM compound stock, 8.7 ul was aliquoted to the 20 ul DMSO and 3-fold serial dilutions (12 pt 3-0.01 uM tritration plate, 96 well, 100% DMSO) performed. Five ul from the titration plate wells was aliquoted to 45 ul Buff C (Intermediate dilution plates, 10% DMSO).
Spot 1.5 μl compound titrations to 384-well plates in duplicate, and spot 3.5 μl [8.5 nM] BCL6-bio protein to each well. The plate was mix briefly, centrifuged, and incubated for 30 minutes at room temperature.
Mix 14 mls of BCoR-Cy5 [300 nM] and 14 mls [6 nM] Eu-Streptavidin. Spot 10 μl BCoR-Cy5/SA-Eu (1:1) mix to each well. The plates were incubated for 2 hours and then read on an Envision plate reader.

BCL6 [2] = target: T1, BCL6; assay: Immunofluorescence high content imaging of BCL6 degradation in T47D cells; type: cell-based; details: for Dmax: T47D, maximum, class symbols A-C; for DC50: class symbols A-D, read-out: EC50 (nM)*
Outline: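 Following a 3-day incubation with serially diluted bifunctional compounds (final top 0.1 or 1 μM), T47D cells were PFA-fixed and immunostained for BCL6. Nuclear BCL6 signal was captured on a high-content imager.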

[3] = class symbols A-D, read-out: IC50 (nM)***

Row | SMILES | IC50 (BCL6 [1]; [3]) [nM] | Dmax (BCL6 [2]) [%] | DC50 (BCL6 [2]) [nM] | IC50 (BCL6 [1]; read-out: IC50) [nM]
1 | CNC(=O)COc1cc2cc(Nc3nc(N4CCC(OCCOCCOCCOCCOCCOc5ccc6c(c5)CN(C5CCC(=O)NC5=O)C6=O)CC4)ncc3Cl)ccc2n(C)c1=O (centres unmarked) [compound 62, 2-((6-((5-chloro-2-(4-((14-((2-(2,6-dioxopiperidin-3-yl)-1-oxoisoindolin-5-yl)oxy)-3,6,9,12-tetraoxatetradecyl)oxy)piperidin-1-yl)pyrimidin-4-yl)amino)-1-methyl-2-oxo-1,2-dihydroquinolin-3-yl)oxy)-N-methylacetamide] | 10 to 50 | ≥ 70 | > 100 | –
2 | CNC(=O)COc1cc2cc(Nc3nc(N4CCC(CN5CCN(c6ccc7c(c6)C(=O)N(C6CCC(=O)NC6=O)C7=O)CC5)CC4)ncc3Cl)ccc2n(C)c1=O (centres unmarked) [compound 104, 2-((6-((5-chloro-2-(4-((4-(2-(2,6-dioxopiperidin-3-yl)-1,3-dioxoisoindolin-5-yl)piperazin-1-yl)methyl)piperidin-1-yl)pyrimidin-4-yl)amino)-1-methyl-2-oxo-1,2-dihydroquinolin-3-yl)oxy)-N-methylacetamide] | 10 to 50 | 50 to 70 | 10 to 50 | –
3 | CNC(=O)COc1cc2cc(Nc3nc(N4CCC(OCCN5CCN(Cc6ccc(C#Cc7ccc8c(c7)CN(C7CCC(=O)NC7=O)C8=O)cc6)CC5)CC4)ncc3Cl)ccc2n(C)c1=O (centres unmarked) [compound 119, 2-((6-((5-chloro-2-(4-(2-(4-(4-((2-(2,6-dioxopiperidin-3-yl)-1-oxoisoindolin-5-yl)ethynyl)benzyl)piperazin-1-yl)ethoxy)piperidin-1-yl)pyrimidin-4-yl)amino)-1-methyl-2-oxo-1,2-dihydroquinolin-3-yl)oxy)-N-methylacetamide] | < 10 | < 50 | 10 to 50 | –
4 | CNC(=O)COc1cc2cc(Nc3nc(N4CCCC(COc5ccc(C6CCN(CCC(O)c7ccc8c(c7)CN(C7CCC(=O)NC7=O)C8=O)CC6)cc5)C4)ncc3Cl)ccc2n(C)c1=O (centres unmarked) [compound 127, 2-((6-((5-chloro-2-(3-((4-(1-(3-(2-(2,6-dioxopiperidin-3-yl)-1-oxoisoindolin-5-yl)-3-hydroxypropyl)piperidin-4-yl)phenoxy)methyl)piperidin-1-yl)pyrimidin-4-yl)amino)-1-methyl-2-oxo-1,2-dihydroquinolin-3-yl)oxy)-N-methylacetamide] | < 10 | < 50 | 10 to 50 | –
5 | CC(=O)COc1cc2cc(Nc3nc(N4CCC(OCCN5CCN(c6ccc7c(c6)CN(C6CCC(=O)NC6=O)C7=O)CC5)CC4)ncc3Cl)ccc2n(C)c1=O (centres unmarked) [compound 128, 3-(5-(4-(2-((1-(5-chloro-4-((1-methyl-2-oxo-3-(2-oxopropoxy)-1,2-dihydroquinolin-6-yl)amino)pyrimidin-2-yl)piperidin-4-yl)oxy)ethyl)piperazin-1-yl)-1-oxoisoindolin-2-yl)piperidine-2,6-dione] | < 10 | < 50 | < 10 | –

Continued, values first:

Row | IC50 (BCL6 [1]; [3]) [nM] | Dmax (BCL6 [2]) [%] | DC50 (BCL6 [2]) [nM] | IC50 (BCL6 [1]; read-out: IC50) [nM] | SMILES
6 | < 10 | < 50 | 10 to 50 | – | CC(=O)COc1cc2cc(Nc3nc(N4CCN(CCCN5CCN(c6ccc7c(c6)CN(C6CCC(=O)NC6=O)C7=O)CC5)CC4)ncc3Cl)ccc2n(C)c1=O (centres unmarked) [compound 137, 3-(5-(4-(3-(4-(5-chloro-4-((1-methyl-2-oxo-3-(2-oxopropoxy)-1,2-dihydroquinolin-6-yl)amino)pyrimidin-2-yl)piperazin-1-yl)propyl)piperazin-1-yl)-1-oxoisoindolin-2-yl)piperidine-2,6-dione]
7 | < 10 | < 50 | 10 to 50 | – | CNC(=O)COc1cc2cc(Nc3nc(N4CCC(N(C)C5CCN(CC6CCN(c7ccc(C#Cc8ccc9c(c8)CN(C8CCC(=O)NC8=O)C9=O)cc7)CC6)CC5)CC4)ncc3Cl)ccc2n(C)c1=O (centres unmarked) [compound 138, 2-((6-((5-chloro-2-(4-((1-((1-(4-((2-(2,6-dioxopiperidin-3-yl)-1-oxoisoindolin-5-yl)ethynyl)phenyl)piperidin-4-yl)methyl)piperidin-4-yl) (methyl)amino)piperidin-1-yl)pyrimidin-4-yl)amino)-1-methyl-2-oxo-1,2-dihydroquinolin-3-yl)oxy)-N-methylacetamide]
8 | < 10 | 50 to 70 | 10 to 50 | – | CC(=O)COc1cc2cc(Nc3nc(N4CCN(CC5CCN(c6ccc7c(c6)C(=O)N(C6CCC(=O)NC6=O)C7=O)CC5)CC4)ncc3Cl)ccc2n(C)c1=O (centres unmarked) [compound 148, 5-(4-((4-(5-chloro-4-((1-methyl-2-oxo-3-(2-oxopropoxy)-1,2-dihydroquinolin-6-yl)amino)pyrimidin-2-yl)piperazin-1-yl)methyl)piperidin-1-yl)-2-(2,6-dioxopiperidin-3-yl)isoindoline-1,3-dione]
9 | – | – | – | ≥ 100 | CNC(=O)COc1cc2cc(Nc3nc(N4CCC(O[C@@H]5C[C@H](Oc6cccc7c6C(=O)N(C6CCC(=O)NC6=O)C7=O)CN(C)C5)CC4)ncc3Cl)ccc2n(C(C)C)c1=O (stereo partly drawn) [compound 487, 2-[(6-{[5-chloro-2-(4-{[(3R,5S)-5-{[2-(2,6-dioxopiperidin-3-yl)-1,3-dioxo-2,3-dihydro-1H-isoindol-4-yl]oxy}-1-methylpiperidin-3-yl]oxy}piperidin-1-yl)pyrimidin-4-yl]amino}-2-oxo-1-(propan-2-yl)-1,2-dihydroquinolin-3-yl)oxy]-N-methylacetamide]
10 | – | – | – | ≥ 100 | CNC(=O)COc1cc2cc(Nc3nc(N4CCC(CN5CCC6(CC5)CCN(c5ccc(N7CCC(=O)NC7=O)c(OC)c5)C6)CC4)ncc3Cl)ccc2n(C(C)C)c1=O [compound 509, 2-{[6-({5-chloro-2-[4-({2-[4-(2,4-dioxo-1,3-diazinan-1-yl)-3-methoxyphenyl]-2,8-diazaspiro[4.5]decan-8-yl}methyl)piperidin-1-yl]pyrimidin-4-yl}amino)-2-oxo-1-(propan-2-yl)-1,2-dihydroquinolin-3-yl]oxy}-N-methylacetamide]
11 | – | – | – | 10 to 50 | CNC(=O)COc1cc2cc(Nc3nc(N4CCC(N5CCC6(CCN(c7cccc8c7C(=O)N(C7CCC(=O)NC7=O)C8=O)C6)CC5)CC4)ncc3Cl)ccc2n(C(C)C)c1=O (centres unmarked) [compound 528, 2-[(6-{[5-chloro-2-(4-{2-[2-(2,6-dioxopiperidin-3-yl)-1,3-dioxo-2,3-dihydro-1H-isoindol-4-yl]-2,8-diazaspiro[4.5]decan-8-yl}piperidin-1-yl)pyrimidin-4-yl]amino}-2-oxo-1-(propan-2-yl)-1,2-dihydroquinolin-3-yl)oxy]-N-methylacetamide]
12 | – | – | – | 10 to 50 | CNC(=O)COc1cc2cc(Nc3nc(N4CCC(CN5CCCN(c6ccc(OC)c(N7CCC(=O)NC7=O)c6)CC5)CC4)ncc3Cl)ccc2n(C(C)C)c1=O [compound 530, 2-{[6-({5-chloro-2-[4-({4-[3-(2,4-dioxo-1,3-diazinan-1-yl)-4-methoxyphenyl]-1,4-diazepan-1-yl}methyl)piperidin-1-yl]pyrimidin-4-yl}amino)-2-oxo-1-(propan-2-yl)-1,2-dihydroquinolin-3-yl]oxy}-N-methylacetamide]
13 | – | – | – | 10 to 50 | CNC(=O)COc1cc2cc(Nc3nc(N4CCC(CN5CCCN(c6cccc(N7CCC(=O)NC7=O)c6OC)CC5)CC4)ncc3Cl)ccc2n(C(C)C)c1=O [compound 535, 2-{[6-({5-chloro-2-[4-({4-[3-(2,4-dioxo-1,3-diazinan-1-yl)-2-methoxyphenyl]-1,4-diazepan-1-yl}methyl)piperidin-1-yl]pyrimidin-4-yl}amino)-2-oxo-1-(propan-2-yl)-1,2-dihydroquinolin-3-yl]oxy}-N-methylacetamide]
